According to US10730857B2, “Benzocyanine compounds” (Pierce Biotechnology, Inc., priority 2011, dated 2020):

Tests used:
lamin A in U20S cells [1] = assay: Immunofluorescence detection of lamin A in U20S cells (FIG. 20A-C and repeat); format: cell-based
Description: In the indicated experiments, the inventive compounds and commercial dye were evaluated for immunofluorescence in a cell based assay using the following protocol. Frozen U20S cell plates which were stored at −80° C. were thawed for 45 minutes at 50° C. Storage buffer (PBS) was removed and the cells were permeabilized for 15 minutes with 0.1% Triton-X100 in 1×PBS buffer (100 μl/well). The cell plate was blocked for 60 minutes in 2% BSA/PBS-0.1% Triton-X100. Primary antibody, either rat anti-Grp94 (5 μg/ml), mouse anti-lamin A (10 μg/ml), or rabbit anti-lamin B1 (10 μg/ml), diluted in 2% BSA/PBS-0.1% Triton-X100 was added to the plate and incubated for 1 hour at room temperature. Control wells contained only 2% BSA/PBS-0.1% Triton-X100 blocker. After incubation, the antibody solution was removed from the plate and the plate was washed three times with 100 μl/well of PBS-0.5% Tween-20 and one time with 100 μl/well PBS. GARat, GAM, or GAR secondary antibodies labeled with various molar excess of the inventive or commercial compound were diluted to 4 μg/ml in PBS and incubated for 1 hour at room temperature. The plates were washed three times with 100 μl/well of PBST and once with 100 μl/well PBS, and Hoechst (diluted to 0.1 μg/ml in PBS) was added to each well (100 μl/well). The plates were scanned on ArrayScan Plate Reader or ToxInsight Instrument.

[2] = test system: rabbit IgG immunoglobulin; assay: Plate functional assay of dye-GAR conjugates; format: binding
Description: Performance of the dye-GAM conjugates, dye-GAR conjugates, and dye-SA conjugates was evaluated in a functional assay. Wells of a 96 white opaque plate or black clear-bottom plate were coated with target proteins mouse IgG immunoglobulin, rabbit IgG immunoglobulin, or biotinylated bovine serum albumin (BBSA). One hundred μl mouse or rabbit IgG, or BBSA at a concentration of 10 μg/ml was applied to the corresponding wells in columns 1 and 2. The target proteins were serially diluted 1:1 from the wells in columns 2 to 11 using 100 μl PBS. One hundred μl of the samples from the wells in column 11 were discarded. One hundred μl PBS was added to the wells in column 12. The plates were incubated overnight at 4° C. and then blocked 2×200 μl with Thermo Scientific SuperBlock® Blocking Buffer. The coated plates were washed 2×200 μl with PBS-Tween and 1×200 μl with PBS. Based on the calculated concentrations, conjugates were diluted 1:250 in PBS, added to the corresponding plates (100 μl/well) and then incubated for one hour in the dark. The plates were washed with 2×200 μl with PBS-Tween and 1×200 μl with PBS and filled with PBS buffer (100 μl/well) prior to scanning the white opaque plates on Tecan Safire using 679 nmexcitation/702 nmemission or scanning the black clear-bottom plates on LiCor Odyssey at 700 channel, to detect fluorescence intensity.

[3] = Absorbance/emission spectral properties and fluorescence intensity of the dyes; format: physicochemical
Description: Emission/excitation profiles for inventive and commercial compounds was determined by reconstituting the compounds in DMF at 10 mg/ml and then diluting in PBS buffer pH 7.2 to 10 μg/ml.

lamin A in U20S cells [4] = assay: Immunofluorescence, mouse anti-lamin A, U20S cells (FIG. 16); format: cell-based; settings: FIG. 16
Description: The inventive compounds and commercial dye were evaluated for immunofluorescence in a second cell based assay using the following protocol. Frozen U20S cell plates stored at −20° C. were placed overnight at 4° C. Storage buffer (PBS) was removed and the cells were permeabilized for 15 min (100 μl/well) with 0.1% Triton-X100 in 1×PBS buffer. Plates were blocked for 30 min in 2% BSA in 1×PBS-0.1% Trion-X100. Primary antibodies diluted in 2% BSA in 1×PBS-0.1% Trion-X100 were added to the plates (column 1-11; column 12 included only blocker) and incubated five hours at room temperature. Mouse anti-lamin A was added at 2 μg/ml and rabbit anti-lamin B1 was added at 4 μg/ml. After incubation, the antibody solution was removed from the plates and the plates were washed PBS-0.5% Tween-20 (2×100 μl/well). Next, GAM and GAR secondary antibodies labeled with DyLight 680-NHS, DyLight 680B-NHS, 679 Compound 1-NHS, and Cy5.5 Mono Ester were diluted to 4 μg/ml in PBS and incubated with the cells for one hour at room temperature. GAM and GAR conjugated to DyLight 680-NHS, DyLight 680B-NHS, 679 Compound 1-NHS, and Company B Compound at 10× molar excess were diluted to 4 μg/ml in PBS and then serially diluted 1:1 in the plate to the following concentrations: 2 μg/ml, 1 μg/ml, 0.5 μg/ml, 0.25 μg/ml, 0.125 μg/ml and/or 0.0625 μg/ml. The plates were washed 3× with 100 μl/well PBS, and Hoechst stain diluted to 0.1 μg/ml in PBS was added to each well (100 μl/well). The plates were scanned on ArrayScan Plate Reader for imaging and quantitation.

[5] = In vivo imaging with dye-labeled anti-CEA antibody; parameters: species or system nu/nu mice; settings: dye conjugated to mouse anti-CEA antibody; i.v.; predicted results
Description: The inventive compounds are used for in vivo imaging as described in J. Gastrointest Surg (2008) 12:1938-1950. Briefly, human pancreatic cell lines are maintained in media supplemented with penicillin/streptomycin at 37° C. with 5% CO2. Mouse anti-CEA antibody and Control Mouse IgG (in PBS with 0.20% sodium azide) are conjugated to V08-15173. The dye is reconstituted at 10 mg/ml in DMF and then added to the antibody at a 10 molar excess. The reaction is carried out for one hour at room temperature. The samples are then dialyzed against 3×2 L of PBS. The cell lines are plated in 96-well plates at 5×10^4 cells per well. After 48 hours culture in appropriate media, the cells are incubated with 1 μg of V08-15173 labeled anti-CEA antibody or V08-15173-labeled control mouse IgG for four hours at 37° C. The cells are then washed three times with PBS and then imaged with an inverted Nikon De-485 microscope and Spot camera RD.
Surgical procedures and intravital imaging are performed with the animals anesthesized by intramuscular injection of 0.02 ml of 50% ketamine, 38% xylazine and 12 acepromazine maleate. Human pancreatic and colorectal cancer cell lines are harvested by trypsinization and washed twice with serum free medium […]. Cells (1×10^6 in 100 μl of serum-free media) are injected subcutaneously within 30 minutes of harvesting over the right flank in female nu/nu mice between 4-6 weeks of age. Subcutaneous tumors are allowed to grow for 7-14 days until they reached diameter of 1-2 mm prior to the delivery of conjugated antibody. For ASPC-1 implants, the cells are harvested by trypsinization and washed 3× in serum-free media. […]. The cells are resuspended in serum-free media at 5×10^6/ml. A volume of 200 μl of the cell suspension is then injected directly into the peritoneal cavity within 30 minutes of harvesting.
For antibody delivery, one to two weeks after subcutaneous, orthotopic, or intraperitoneal tumor implantation, animals are given intravenous (i.v.) injection of either conjugated anti-CEA or conjugated control IgG antibody diluted in PBS to a final volume of 100 μl. All i.v. injections are done via the tail vein. For the dose-response experiment, the antibody dose is 75 μg. For the in vivo time course, the animals are anesthesized and imaged at 30 min, 1, 2, 6, 24 hours and 8 and 15 days after systemic antibody delivery.
The inventive compounds are used for in vivo imaging as described in J. Gastrointest Surg (2008) 12:1938-1950. Briefly, human pancreatic cell lines are maintained in media supplemented with penicillin/streptomycin at 37° C. with 5% CO2. Mouse anti-CEA antibody and Control Mouse IgG (in PBS with 0.20% sodium azide) are conjugated to 779 Compound 1. […]

[6] = first property table of Example 6, NHS/mono ester forms
[7] = second property table of Example 6, NHS ester forms

COCC[N+]1=C(/C=C/C=C/C=C2/N(CCCCCC(=O)O)c3ccc4c(S(=O)(=O)[O-])cc(S(=O)(=O)[O-])cc4c3C2(C)C)C(C)(CCCS(=O)(=O)[O-])c2c1ccc1c(S(=O)(=O)[O-])cc(S(=O)(=O)[O-])cc21.[Na+].[Na+].[Na+].[Na+] (centres unmarked) [679 Compound 1/1, 2-{(1E,3E)-5-[3-(5-Carboxypentyl)-1,1-dimethyl-6,8-disulfo-1,3-dihydro-benzo[e]indol-(2E)-ylidene]-penta-1,3-dienyl}-3-(2-methoxy-ethyl)-1-methyl-6,8-disulfo-1-(3-sulfopropyl)-1H-benzo[e]indolium]
Mean Total Intensity, Average, 2.5 X (lamin A in U20S cells [1]; GAM conjugate 4 μg/ml, 2.5 X molar excess): 29229
Mean Total Intensity, Average, 5.0 X (lamin A in U20S cells [1]; GAM conjugate 4 μg/ml, 5.0 X molar excess): 49279
Mean Total Intensity, Average, 7.5 X (lamin A in U20S cells [1]; GAM conjugate 4 μg/ml, 7.5 X molar excess): 28782
Mean Total Intensity, Average, 10 X (lamin A in U20S cells [1]; GAM conjugate 4 μg/ml, 10 X molar excess): 30098
Mean Total Intensity, Average, 15 X (lamin A in U20S cells [1]; GAM conjugate 4 μg/ml, 15 X molar excess): 48071
Mean Total Intensity, Negative control, 2.5 X (lamin A in U20S cells [1]; repeat experiment, no primary antibody, 2.5 X): 8711
Mean Total Intensity, Negative control, 5 X (lamin A in U20S cells [1]; repeat experiment, no primary antibody, 5 X): 8674
Mean Total Intensity, Negative control, 10 X (lamin A in U20S cells [1]; repeat experiment, no primary antibody, 10 X): 20481
Mean Total Intensity, Negative control, 15 X (lamin A in U20S cells [1]; repeat experiment, no primary antibody, 15 X): 16277
quenching at 1000 ng/well at 25× (in words) ([2]; FIG. 14 summary Raw Fluorescence Intensity): apparent quenching
Raw Fluorescence Intensity behaviour at 25× molar excess (in words) ([2]; LiCOR Odyssey, FIG. 12): saturating at 25×

2-{(1E,3E)-5-[3-(5-Carboxypentyl)-1,1-dimethyl-6,8-disulfo-1,3-dihydro-benzo[e]indol-(2E)-ylidene]-penta-1,3-dienyl}-3-(2-methoxy-ethyl)-1-methyl-6,8-disulfo-1-(3-sulfopropyl)-1H-benzo[e]indolium [679 Compound 1/1 (isomer 2)]
UV-vis λmax ([3]; PBS): 679 nm
λem ([3]; PBS): 698 nm

Cy5.5 [reference compound]
Mean Total Intensity 2X (lamin A in U20S cells [4]; GAM conjugated at 2X molar excess): 211945
Mean Total Intensity 3X (lamin A in U20S cells [4]; GAM conjugated at 3X molar excess): 342208
Mean Total Intensity 4X (lamin A in U20S cells [4]; GAM conjugated at 4X molar excess): 451111

COCC[N+]1=C(/C=C/C=C/C=C2/N(CCCCCC(=O)O)c3ccc4c(S(=O)(=O)[O-])cc(S(=O)(=O)[O-])cc4c3C2(C)C)C(C)(CCCS(=O)(=O)[O-])c2c1ccc1c(S(=O)(=O)[O-])cc(S(=O)(=O)[O-])cc21.[Na+].[Na+].[Na+].[Na+] (single isomer, unassigned; isomer 1) [679 Compound 1/1 (isomer 1), 2-{(1E,3E)-5-[3-(5-Carboxypentyl)-1,1-dimethyl-6,8-disulfo-1,3-dihydro-benzo[e]indol-(2E)-ylidene]-penta-1,3-dienyl}-3-(2-methoxy-ethyl)-1-methyl-6,8-disulfo-1-(3-sulfopropyl)-1H-benzo[e]indolium]
UV-vis λmax ([3]; PBS): 679 nm

COCC[N+]1=C(/C=C/C=C/C=C/C=C2/N(CCCCCC(=O)O)c3ccc4c(S(=O)(=O)[O-])cc(S(=O)(=O)O)cc4c3C2(C)C)C(C)(CCCS(=O)(=O)O)c2c1ccc1c(S(=O)(=O)O)cc(S(=O)(=O)O)cc21 (centres unmarked) [779 Compound 1, 6-((E)-2-((2E,4E,6E)-7-(3-(2-methoxyethyl)-1-methyl-6,8-disulfonato-1-(3-sulfonatopropyl)-1H-benzo[e]indol-3-ium-2-yl)hepta-2,4,6-trien-1-ylidene)-1,1-dimethyl-6,8-disulfonato-1H-benzo[e]indol-3(2H)-yl)hexanoate]
Ex vivo analysis of the vital organs [5]: presence of dye predominantly in the liver with some signal detected in the spleen intestines and lungs
post-experiment surgical exposure: accumulation of dye [5]: accumulation of dye in the liver, bladder, and a region of inflammation in the subcutaneous tissue

COCC[N+]1=C(/C=C/C=C/C=C2/N(CCCCCC(=O)ON3C(=O)CCC3=O)c3ccc4c(S(=O)(=O)[O-])cc(S(=O)(=O)O)cc4c3C2(C)C)C(C)(CCCS(=O)(=O)O)c2c1ccc1c(S(=O)(=O)O)cc(S(=O)(=O)O)cc21 (centres unmarked) [679 Compound 1-NHS]
Em [3, 6]: 698 nm
Ex [3, 6]: 679 nm
Em [3, 7]: 698 nm
Ex [3, 7]: 679 nm
